Data reported in patent publication US8563593B2, “Formulations of (R)-1-(2,2-difluorobenzo[D] [1,3] dioxol-5-yl)-N-(1-(2,3-dihydroxypropyl)-6-fluoro-2-(1-hydroxy-2-methylpropan-2-yl)-1H-indol-5-yl)cyclopropanecarboxamide” (Vertex Pharmaceuticals Incorporated, priority 2010, dated 2013).

Assays:
ΔF508-CFTR = target: T1, ΔF508-CFTR (Homo sapiens, UniProt P13569, DEL508-508); assay: Assays for detecting and measuring ΔF508-CFTR correction properties (membrane potential optical assay); format: cell-based; conditions: PercentActivity; NIH3T3 mouse fibroblasts stably expressing ΔF508-CFTR
T1 construct: expressed in transfected cells
T1 sequence (P13569 with tags, fused parts or gaps DEL508-508): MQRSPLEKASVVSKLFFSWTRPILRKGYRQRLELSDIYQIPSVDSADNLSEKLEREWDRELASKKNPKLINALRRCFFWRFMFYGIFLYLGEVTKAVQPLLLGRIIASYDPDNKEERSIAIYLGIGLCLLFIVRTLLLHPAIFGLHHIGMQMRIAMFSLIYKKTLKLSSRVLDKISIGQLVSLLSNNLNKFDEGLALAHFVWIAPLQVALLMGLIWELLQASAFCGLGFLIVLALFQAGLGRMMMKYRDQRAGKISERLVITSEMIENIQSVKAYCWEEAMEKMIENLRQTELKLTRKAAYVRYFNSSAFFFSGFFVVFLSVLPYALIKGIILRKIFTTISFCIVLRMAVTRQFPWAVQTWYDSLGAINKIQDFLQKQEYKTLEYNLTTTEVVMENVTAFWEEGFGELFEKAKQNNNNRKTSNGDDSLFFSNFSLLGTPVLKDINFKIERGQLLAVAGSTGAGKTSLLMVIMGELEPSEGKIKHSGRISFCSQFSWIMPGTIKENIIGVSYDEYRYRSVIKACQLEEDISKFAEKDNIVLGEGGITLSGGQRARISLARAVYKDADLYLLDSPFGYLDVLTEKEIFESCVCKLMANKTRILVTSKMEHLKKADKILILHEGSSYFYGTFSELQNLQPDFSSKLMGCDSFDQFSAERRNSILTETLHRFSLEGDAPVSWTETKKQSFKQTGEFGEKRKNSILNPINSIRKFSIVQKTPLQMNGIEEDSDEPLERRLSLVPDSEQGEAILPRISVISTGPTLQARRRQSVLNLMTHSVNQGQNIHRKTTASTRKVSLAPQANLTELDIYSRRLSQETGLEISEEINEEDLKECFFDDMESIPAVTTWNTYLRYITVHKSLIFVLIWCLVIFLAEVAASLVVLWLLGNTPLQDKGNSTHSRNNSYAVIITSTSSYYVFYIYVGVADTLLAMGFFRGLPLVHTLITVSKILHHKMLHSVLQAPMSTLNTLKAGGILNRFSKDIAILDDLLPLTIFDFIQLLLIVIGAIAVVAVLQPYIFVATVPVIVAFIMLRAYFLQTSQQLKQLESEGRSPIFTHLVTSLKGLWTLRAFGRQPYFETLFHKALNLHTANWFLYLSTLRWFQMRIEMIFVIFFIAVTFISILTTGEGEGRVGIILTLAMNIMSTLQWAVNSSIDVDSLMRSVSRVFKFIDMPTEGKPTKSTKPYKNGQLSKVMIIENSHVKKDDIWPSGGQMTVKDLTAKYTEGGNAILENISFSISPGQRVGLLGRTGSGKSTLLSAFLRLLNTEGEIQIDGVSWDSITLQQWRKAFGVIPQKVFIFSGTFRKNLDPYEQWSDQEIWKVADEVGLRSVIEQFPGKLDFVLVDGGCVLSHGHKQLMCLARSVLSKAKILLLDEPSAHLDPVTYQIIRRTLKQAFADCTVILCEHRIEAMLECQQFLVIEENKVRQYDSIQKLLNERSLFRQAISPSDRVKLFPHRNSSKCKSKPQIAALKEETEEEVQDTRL
Source text: Assays for Detecting and Measuring ΔF508-CFTR Correction Properties of Compounds
Membrane Potential Optical Methods for Assaying ΔF508-CFTR Modulation Properties of Compounds
The optical membrane potential assay utilized voltage-sensitive FRET sensors described by Gonzalez and Tsien (See Gonzalez, J. E. and R. Y. Tsien (1995) “Voltage sensing by fluorescence resonance energy transfer in single cells” Biophys J 69(4): 1272-80, and Gonzalez, J. E. and R. Y. Tsien (1997) “Improved indicators of cell membrane potential that use fluorescence resonance energy transfer” Chem Biol 4(4): 269-77) in combination with instrumentation for measuring fluorescence changes such as the Voltage/Ion Probe Reader (VIPR) (See, Gonzalez, J. E., K. Oades, et al. (1999) “Cell-based assays and instrumentation for screening ion-channel targets” Drug Discov Today 4(9): 431-439).
These voltage sensitive assays are based on the change in fluorescence resonant energy transfer (FRET) between the membrane-soluble, voltage-sensitive dye, DiSBAC2(3), and a fluorescent phospholipid, CC2-DMPE, which is attached to the outer leaflet of the plasma membrane and acts as a FRET donor. […] The changes in fluorescence emission were monitored using VIPR™ II, which is an integrated liquid handler and fluorescent detector designed to conduct cell-based screens in 96- or 384-well microtiter plates. […]

[1] = Solubility of Compound 1 with and without PEG cosolvent and vitamin E TPGS; format: physicochemical
Source text: The PEG cosolvent and vitamin E TPGS induced micelle formation increase Compound 1 solubility from 7 micrograms to several milligrams per g of solution.

CC(C)(CO)c1cc2cc(NC(=O)C3(c4ccc5c(c4)OC(F)(F)O5)CC3)c(F)cc2n1C[C@@H](O)CO [Compound 1, (R)-1-(2,2-difluorobenzo[d][1,3]dioxol-5-yl)-N-(1-(2,3-dihydroxypropyl)-6-fluoro-2-(1-hydroxy-2-methylpropan-2-yl)-1H-indol-5-yl)cyclopropanecarboxamide]
Binned MaxEfficacy (ΔF508-CFTR): +++ (PercentActivity Bins: + <= 25.0 < ++ <= 100.0 < +++)
Compound 1 solubility ([1]; with PEG cosolvent and vitamin E TPGS induced micelle formation): several
Compound 1 solubility ([1]; without PEG cosolvent and vitamin E TPGS): 7 micrograms per g of solution
